For one data set, the system named is C57BL/6 mice. Kind of data set: Morris water maze (MWM) after open space swimming (OSS), learning motivation. The format is in vivo. The note with it: for improving effect on learning motivation over control group (OSS-Vehicle): 20 mg/kg, MWM, FIG. 2. As to the method: On the other hand, the Morris water maze test has been reported as a method for measuring spatial memory and learning (Learn. Motiv. 12, 239-260 (1981)). In this test, the time required to reach an escape platform (escape latency) is used as a parameter for evaluation, because mice will remember their surrounding scenery and swim in a pool filled with water to try to find and reach the escape platform, which is a goal, with their memory as a guide. Since mice to be used in this test are treated to reduce their motivation by being allowed to swim in a pool having no escape platform before the Morris water maze test, a reduction in the time required to reach the escape platform can be regarded as an improvement in learning motivation.
Compound A was evaluated for its antidepressive effect and enhancing effect on learning motivation by the method known in the art, i.e., Morris Water Maze (MWM).
First, water which had been colored black with Indian ink was filled into a cylindrical tank of 90 cm diameter and 35 cm height to give a water depth of 20 cm, and the water temperature was set to 22±1° C. To this tank, C57BL/6 mice (male, 9 weeks of age) were each transferred and allowed to experience open space swimming (OSS). Upon OSS, mice will cause changes in their behavior and enter a state corresponding to depression. After repeating OSS for 5 days, the mice were divided into 7 groups.
Next, in the above cylindrical tank of 90 cm diameter and 35 cm height, an escape platform of 10 cm diameter was placed at a water depth of 0.5 cm. The above 7 groups of mice were each orally administered with compound A (Bachem AG (Bubendorf, Switzerland)) or with a comparative drug, fluvoxamine maleate, in the form of a suspension in physiological saline. After 60 minutes, each mouse was transferred to the tank provided with the escape platform, and measured for the time required to find out the invisible escape platform placed below the water surface (i.e., escape latency) to evaluate the spatial memory and learning ability of each mouse (MWM). As control mice, animals experiencing no OSS were administered with physiological saline and subjected to MWM. MWM was repeated five times a day for 10 days.
In the same manner as shown in Example 2, mice were administered with 20 mg/kg compound A and then subjected to the MWM test. As a control, a linear dipeptide (Phe-Phe) was administered at 20 mg/kg, followed by the MWM test.
In the same manner as shown in Example 2, another group receiving 0.002 mg/kg administration was prepared and subjected to the same MWM test.

Data set [1] in a line: Genetic toxicity studies (Ames test, chromosomal aberration test, mouse micronucleus test). For orientation: The Ames test uses bacterial strains that need an amino acid and regain growth without it when mutated back.
The test system of a further data set is rats. Nature of the data set: 28-day repeated dose toxicity study. The format is in vivo.
In data set [2] the target is T1, human serotonin transporter expressed in CHO cells (Homo sapiens, UniProt P31645).
T1 construct: expressed in transfected cells; host or cells: CHO cells
T1 sequence (P31645 whole entry): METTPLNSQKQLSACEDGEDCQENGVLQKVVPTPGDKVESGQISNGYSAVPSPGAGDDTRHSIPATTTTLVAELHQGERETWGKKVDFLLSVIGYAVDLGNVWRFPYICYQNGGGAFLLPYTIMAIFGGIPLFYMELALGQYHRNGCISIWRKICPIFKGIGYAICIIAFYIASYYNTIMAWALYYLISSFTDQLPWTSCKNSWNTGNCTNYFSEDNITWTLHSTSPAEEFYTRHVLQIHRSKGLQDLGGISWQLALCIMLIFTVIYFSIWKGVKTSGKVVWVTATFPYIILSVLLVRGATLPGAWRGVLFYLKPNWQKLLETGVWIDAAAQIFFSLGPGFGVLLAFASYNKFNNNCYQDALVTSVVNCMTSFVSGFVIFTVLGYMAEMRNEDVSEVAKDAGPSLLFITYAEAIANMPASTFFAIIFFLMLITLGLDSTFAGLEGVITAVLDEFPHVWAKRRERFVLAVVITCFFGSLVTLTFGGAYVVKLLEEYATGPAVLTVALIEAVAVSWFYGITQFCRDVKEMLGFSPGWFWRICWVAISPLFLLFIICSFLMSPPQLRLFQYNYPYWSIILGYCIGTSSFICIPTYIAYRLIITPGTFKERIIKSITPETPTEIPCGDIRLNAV
Kind of data set: Inhibitory activity on serotonin transporter binding (3H-imipramine). As to the method: As used herein, the term “SSRI antidepressant” is intended to mean an agent that selectively binds to the serotonin transporter and inhibits the reuptake of serotonin through this serotonin transporter. Inhibitory activity on serotonin transporter binding may be measured, for example, as described in Eur. J. Pharmacol., 368: 277-283, 1999. Namely, it is measured by determining whether ^3H-labeled imipramine binds to the human serotonin transporter expressed in CHO cells.
(§1) Various cyclic dipeptides were measured for their inhibitory activity on serotonin transporter binding and norepinephrine transporter binding, as described in the prior documents mentioned above (Eur J Pharmacol, 368, 277-283, 1999 for inhibitory activity on serotonin transporter binding; and Nature, 350, 350-354, 1991 for inhibitory activity on noradrenaline transporter binding). Compound C was synthesized by Peptide Institute, Inc., Japan, and the other cyclic dipeptides were purchased from Bachem AG (Bubendorf, Switzerland). The results were expressed as IC50 values, i.e., the concentrations of the various cyclic peptides required for 50% inhibition of binding to each transporter (Table 1).

The test system of a further data set is mice. Nature of the data set: Single-dose (acute) toxicity study. The following applies: administered at 2 g/kg. The format is in vivo.
The target in data set [3] is T2, human norepinephrine transporter expressed in CHO cells (Homo sapiens, UniProt P23975).
T2 construct: expressed in transfected cells; host or cells: CHO cells
T2 sequence (P23975 whole entry): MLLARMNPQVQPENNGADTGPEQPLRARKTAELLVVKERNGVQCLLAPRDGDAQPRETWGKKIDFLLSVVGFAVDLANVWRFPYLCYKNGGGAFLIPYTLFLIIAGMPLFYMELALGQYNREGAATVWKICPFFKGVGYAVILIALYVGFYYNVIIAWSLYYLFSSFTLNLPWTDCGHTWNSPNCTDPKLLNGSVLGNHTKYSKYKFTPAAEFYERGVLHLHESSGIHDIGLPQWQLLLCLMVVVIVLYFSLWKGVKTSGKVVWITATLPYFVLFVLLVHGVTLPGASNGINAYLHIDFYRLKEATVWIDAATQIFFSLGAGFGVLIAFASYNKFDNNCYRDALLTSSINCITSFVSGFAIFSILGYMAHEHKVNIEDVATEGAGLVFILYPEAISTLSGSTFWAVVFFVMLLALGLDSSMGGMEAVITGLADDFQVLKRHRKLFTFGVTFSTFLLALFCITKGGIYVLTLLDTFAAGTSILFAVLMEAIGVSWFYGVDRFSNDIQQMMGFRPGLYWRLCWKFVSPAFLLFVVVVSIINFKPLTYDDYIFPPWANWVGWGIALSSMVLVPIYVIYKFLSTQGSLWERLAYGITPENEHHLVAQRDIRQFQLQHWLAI
Nature of the data set: Inhibitory activity on norepinephrine transporter binding (3H-nisoxetine). The following applies: for IC50: concentration required for 50% inhibition of binding. As to the method:
The term “SNRI antidepressant” is intended to mean an agent that binds to both serotonin and norepinephrine transporters, and inhibits the reuptake of serotonin and norepinephrine. Inhibitory activity on norepinephrine transporter binding may be measured, for example, as described in Nature, 350: 350-354, 1991. Namely, it is measured by determining whether ^3H-labeled nisoxetine binds to the human norepinephrine transporter expressed in CHO cells.
as §1

The mark [4] stands for this setting: concentration required for 50% inhibition of binding, read-out: IC50, serotonin transporter (converted).

Like-named read-outs stand apart in the source and are kept apart here.

The source of these data is US9623073B2, “Learning motivation improvers” (SUNTORY HOLDINGS LIMITED, priority 2009, dated 2017).

For `O=C1N[C@@H](Cc2ccccc2)C(=O)N[C@H]1Cc1ccccc1` [Compound A, 2,5-piperazinedione,3,6-bis(phenylmethyl)-,(3S,6S)], in the data set with C57BL/6 mice (0.02 mg/kg oral, at 10 days of MWM), the “reduction of escape latency compared to control group (OSS-Saline)” value is “around 20%”. The “time required to reach the escape platform versus fluvoxamine maleate group” value in the data set with C57BL/6 mice (20 mg/kg oral, at 10 days of MWM) is “substantially the same”. For the same compound, the “improving effect on learning motivation over control group (OSS-Vehicle)” value in the data set with C57BL/6 mice is on record as “significant improving effect on learning motivation”. Moreover, the “human dose predicted from the effective dose in mice” value in the data set with C57BL/6 mice (1/10 of the mouse dose 0.02 mg/kg) is reported as 0.1 mg/human (50 kg). For the same compound, the “escape latency, dose dependence” value in the data set on C57BL/6 mice (OSS mice, oral, MWM for 10 days, FIG. 1) is recorded as “dose-dependent reduction in the escape latency”. The “dose at which the effect is exerted” value in the data set on C57BL/6 mice (mice, time to reach the escape platform at 7 days of MWM, FIG. 3) was ≥ 0.02 mg/kg. Also, the mutagenicity entry in data set [1] is listed as “no mutagenicity”. In addition, the maximum no-effect dose with rats is given as ≥ 2 g/kg/day. In data set [2], the “inhibitory activity on serotonin transporter binding (in words)” value is on record as “have inhibitory activity on serotonin transporter binding”. Moreover, the IC50 is 0.00815 mM in data set [2] (setting [4]) and 0.0081 mM in data set [2] (read-out: concentration (IC50) required for 50% inhibition of serotonin transporter binding). In addition, the “toxicity in single-dose (acute) toxicity study” value in the data set on mice was “no toxicity”.
`O=C1N[C@@H](Cc2c[nH]cn2)C(=O)N2CCC[C@@H]12` [Compound B, pyrrolo[1,2-a]pyrazine-1,4-dione,hexahydro-3-(1H-imidazol-4-ylmethyl)-,(3S,8aS)]: the “inhibitory activity on serotonin transporter binding (in words)” value in data set [2] was “have inhibitory activity on serotonin transporter binding”. In addition, in data set [2] (setting [4]), the IC50 was 2.48 mM.
Taken in the same sequence, the figures for `O=C1N[C@@H](Cc2c[nH]c3ccccc23)C(=O)N2CCC[C@@H]12` [Compound C, pyrrolo[1,2-a]pyrazine-1,4-dione,hexahydro-3-(1H-indol-3-ylmethyl)-,(3S,8aS)] were “have inhibitory activity on serotonin transporter binding” and 3.74 mM.
Consider `O=C1N[C@@H](Cc2c[nH]c3ccccc23)C(=O)N[C@H]1Cc1c[nH]c2ccccc12` [Compound D, 2,5-piperazinedione,3,6-bis(1H-indol-3-ylmethyl)-,(3S,6S)], for which, in data set [3], the “inhibitory activity on norepinephrine transporter binding (in words)” value is listed as “have inhibitory activity on norepinephrine transporter binding” and the IC50 was 0.148 mM.
As to `CC(C)C[C@@H]1NC(=O)[C@@H]2CCCN2C1=O` [Compound E, pyrrolo[1,2-a]pyrazine-1,4-dione,hexahydro-3-(2-methylpropyl)-,(3S,8aS)], in data set [3], the “inhibitory activity on norepinephrine transporter binding (in words)” value was “have inhibitory activity on norepinephrine transporter binding” and the IC50 is 2 mM.
For `CC(C)[C@@H]1NC(=O)[C@@H]2CCCN2C1=O` [Compound F, pyrrolo[1,2-a]pyrazine-1,4-dione,hexahydro-3-(1-methylethyl)-,(3S,8aS)] the same measures were “have inhibitory activity on norepinephrine transporter binding” and 10.7 mM.
Phe-Phe [reference compound]: the “improving effect on learning motivation over control group (OSS-Vehicle)” value in the data set on C57BL/6 mice is recorded as “not confirmed to have a significant effect”.
